Laboratory results reported in ChEMBL document CHEMBL1127198, “Identification of antibody mimotopes containing non-natural amino acids by recombinant and synthetic peptide library affinity selection methods” (Bioorg Med Chem Lett, 1993).

Legend:
[1] = Binding inhibitory activity of compound was evaluated against bacteriophage anti-gp120 monoclonal antibody by competition ELISA assay
[2] = Loss of affinity of compound was determined for bacteriophage anti-gp120 monoclonal antibody by competition ELISA assay; 10 fold loss in affinity was observed
[3] = Loss of affinity of compound was determined for bacteriophage anti-gp120 monoclonal antibody by competition ELISA assay; 3 fold loss in affinity was observed
[4] = Loss of affinity of compound was determined for bacteriophage anti-gp120 monoclonal antibody by competition ELISA assay; 16 fold loss in affinity was observed

Substance | IC50 [1] [µM] | Loss of affinity [2] | Loss of affinity [3] | Loss of affinity [4]
H-ESTRPM-OH | 0.63 |  |  | 
H-ESTRAM-OH | 0.63 |  |  | 
H-ESTRPA-OH | 10 |  |  | 16
H-ESTAPM-OH | 10 |  |  | 16

Continued by falling IC50 [1], values first:

IC50 [1] [µM] | Loss of affinity [2] | Loss of affinity [3] | Loss of affinity [4] | Substance
6.3 | 10 |  |  | H-ESARPM-OH
6.3 | 10 |  |  | H-EATRPM-OH
1.8 |  | 3 |  | H-ASTRPM-OH
